{
  "source": "paper PMC9457600",
  "about": "“Synthesis, Leishmanicidal, Trypanocidal, Antiproliferative Assay and Apoptotic Induction of (2-Phenoxypyridin-3-yl)naphthalene-1(2H)-one Derivatives” (Molecules, 2022)",
  "key": {"VERO cells": {"test_system": "VERO cells", "assay": "MTT cytotoxicity on VERO cells", "assay_type": "cell-based, African green monkey", "details": "Chlorocebus sabaeus, 72 h", "description": "Vero cells were derived from the kidney of an African green monkey, cells were maintained in Dulbecco’s Modified Eagle’s Medium (DMEM), supplemented with 10% heat-inactivated FBS and penicillin-streptomycin solution 1% at 37 °C, 5% CO2 atmosphere and > 95% humidity. We evaluated through a colorimetric method the effect of compounds 8–23 on the promastigotes of L. brasiliensis. Briefly, 96-well plates were used, where 2 × 10^6 parasites/mL were seeded. A concentration of 50 μM was used for each compound and an incubation time of 96 h at 29 °C. 3-(4,5-dimethylthiazol-2-yl)-2,5-diphenyl tetrazolium bromide (MTT) 1 μg/mL was added and incubated in darkness for 4 h, acidic isopropanol (4N) was added and the plate was read at 570 nm in a spectrophotometer Synergy HT (Biotek). Miltefosine was used as a reference drug. The EC50 calculation of the selected compound was performed using growth curves. Direct counting was used to monitor the proliferation of parasites, three independent experiments were performed for each concentration of the compounds evaluated. The in vitro evaluations of compounds toxicity by MTT in VERO and BMDM cells follow a methodology described above with some modifications. The selectivity index was calculated with SI = CC50/EC50, where CC50 was the maximum concentration range of compounds 10, 21–23 used to evaluate cytotoxicity in VERO and BMDM cells. The trypanocidal activity of compounds 8–23 was evaluated on the viability of T. cruzi epimastigotes through a colorimetric method adapted with minor modifications. 2 × 10^6 parasites/mL were seeded in a 96-well plate, adding 50 μM of each derivative dissolved in DMSO (final concentration remained below 1%). The plate was incubated for 96 h at 29 °C. Then, 1 μg/mL of 3-(4,5-dimethylthiazol-2-yl)-2,5-diphenyl tetrazolium bromide (MTT) was added and incubated in darkness for 4 h. After this time, acidic isopropanol (4N) was added and the plate was read at 570 nm in a spectrophotometer Synergy HT (Biotek). Benznidazole was used as a reference drug. The in vitro evaluations of compounds toxicity by MTT in VERO and BMDM cells follow a methodology described above with some modifications. Cells were counted in suspension and seeded at 20 × 10^3 cells/well. The test was carried out in triplicate on 96-well microplates in different concentrations: 50 μM, 100 μM, 200 μM and 300 μM, untreated cells and reference drug (benznidazole) controls."}, "[1]": {"test_system": "epimastigotes of Trypanosoma cruzi strain MHOM/VE/92/YBM", "assay": "MTT viability of T. cruzi epimastigotes", "assay_type": "cell-based"}, "A549 cell line": {"test_system": "A549 cell line", "assay": "Annexin V-FITC/PI flow cytometry apoptosis assay A549", "assay_type": "cell-based, human", "details": "24 h", "description": "(§1) Cell death was assessed after 24 h incubation with compounds 18 and 22. Apoptosis was analyzed by flow cytometry using annexin V-FITC and propidium iodide (PI). Early apoptosis was defined by annexin V-FITC expression and, necrosis by PI expression, late apoptosis by coexpression of annexin V/PI. Doxorubicin and quercetin were used as positive controls. The results of a typical flow cytometry analysis of both compounds are illustrated in Figure 2 and Figure 3. An increase in early apoptosis and late apoptosis was observed; necrosis was less predominant. The results are summarized in Tables S1 and S2 (Supplementary Materials). The expression of annexin V was different depending on the compound used. K562, A549 cell lines were treated as described by the manufacturer (Santa Cruz Biotechnology), washed, and resuspended in annexin V binding buffer (0.01 M HEPES, 0.14 M NaCl, and 2.5 mM CaCl2) with the subsequent incubation of annexinV-FITC and then PI. An Epics XL cytometer (Beckman Coulter, Indianapolis, IN, USA) was used for the analysis. Untreated cells were the negative controls, and doxorubicin (Dox) (1 μM), and quercetin (QC) (50 μM) were the positive controls. Early apoptosis refers to annexin V expression, late apoptosis, the coexpression of annexin V and PI, and necrosis the sole expression of PI. […] The experiments were performed as described before. To avoid the unwanted effects of DMSO, the concentrations of the compounds were never higher than 100 μM."}, "U2OS": {"test_system": "U2OS", "assay": "MTS antiproliferative assay U2OS", "assay_type": "cell-based", "details": "Homo sapiens, 72 h of incubation", "from_the_text": "(§2) The cell lines used were acquired from the American Type Culture Collection (ATCC), CCRF-CEM (T lymphoblastic leukemia), K562 ([…]), U2OS (osteosarcoma), HCT116 (colon carcinoma), A549 (lung adenocarcinoma) and HCT116p53−/− (HCT116 cell line mutated in p53) Horizon Discovery Ltd., (Waterbeach, Cambridge, United Kingdom).\n(§3) In our laboratory, IMTM, we generated the daunorubicin-resistant subline of CCRF-CEM cells (CEM-DNR bulk) and paclitaxel-resistant subline K562-TAX, as described previously. […] Both ABC transporters are involved in drug resistance. As a control, human fibroblasts MRC-5 and BJ cell lines were used. […] Adherent cells were passaged using PBS containing 0.25% trypsin plus 0.01% EDTA (ethylenediamine tetraacetic acid) every 2–3 days.\n(§4) The antiproliferative activity of compounds was determined using a standard 3-(4,5-dimethylthiazol-2yl)-5-(3-carboxymethoxyphenyl)-2-(4-sulfophenyl)-2H-tetrazolium (MTS) reduction assay on a robotic high throughput screening platform (HighResBio, Boston, MA, USA) following treatment of cells for 3–7 days. The IC50 values were calculated from the appropriate dose–response curves with Dotmatics software (San Diego, CA, USA)."}, "CEM-DNR": {"test_system": "CEM-DNR", "assay": "MTS antiproliferative assay CEM-DNR", "assay_type": "cell-based", "details": "Homo sapiens, 72 h of incubation, daunorubicin-resistant", "from_the_text": "as §2, §3, §4"}, "K562-TAX": {"test_system": "K562-TAX", "assay": "MTS antiproliferative assay K562-TAX", "assay_type": "cell-based, human", "details": "72 h of incubation, paclitaxel-resistant", "from_the_text": "as §2, §3, §4"}, "HCT-116": {"test_system": "HCT-116", "assay": "MTS antiproliferative assay HCT116", "assay_type": "cell-based", "details": "Homo sapiens, 72 h of incubation", "from_the_text": "as §2, §3, §4"}, "BJ": {"test_system": "BJ", "assay": "MTS assay on non-malignant BJ", "assay_type": "cell-based", "details": "noncancerous human cell line", "description": "as §3, §4"}, "K562 cell line": {"test_system": "K562 cell line", "assay": "Annexin V-FITC/PI flow cytometry apoptosis assay K562", "assay_type": "cell-based, human", "details": "24 h", "description": "as §1"}},
  "data": [
    {"smiles": "COc1ccc2c(c1)CC/C(=C\\c1cccnc1Oc1ccc(Cl)cc1)C2=O", "note": "[Compound 22, (E)-2-{[2-(4-Chlorophenoxy)pyridin-3-yl]methylene}-3,4-dihydro-6-methoxynaphthalen-1(2H)-one]", "values": [
      {"measurement": "EC50", "setting": "VERO cells", "result": "> 100", "unit": "µM"},
      {"measurement": "SIV/Tc selectivity index on T. cruzi/VERO", "setting": "[1]; SI = CC50/EC50", "result": 20},
      {"measurement": "selectivity index T. cruzi vs BMDM (CC50/EC50)", "setting": "[1]; SI = CC50/EC50", "result": 93},
      {"measurement": "EC50", "setting": "[1]; Trypanosoma cruzi, 72 h, epimastigotes", "result": "5.03 ± 0.49", "unit": "µM"},
      {"measurement": "AV+/IP+ (late apoptosis)", "setting": "A549 cell line; A549, 10 µM", "result": 23.30, "unit": "%"},
      {"measurement": "AV+/IP- (early apoptosis)", "setting": "A549 cell line; A549, 10 µM", "result": 13.80, "unit": "%"},
      {"measurement": "AV-/IP+ (necrosis)", "setting": "A549 cell line; A549, 10 µM", "result": 8.44, "unit": "%"},
      {"measurement": "AV+/IP+ (late apoptosis)", "setting": "A549 cell line; A549, 25 µM", "result": 78.30, "unit": "%"},
      {"measurement": "AV+/IP- (early apoptosis)", "setting": "A549 cell line; A549, 25 µM", "result": 9.36, "unit": "%"},
      {"measurement": "AV-/IP+ (necrosis)", "setting": "A549 cell line; A549, 25 µM", "result": 9.32, "unit": "%"},
      {"measurement": "IC50", "setting": "U2OS", "result": "8.1 ± 1.71", "unit": "µM"},
      {"measurement": "IC50", "setting": "CEM-DNR", "result": "22.5 ± 4.77", "unit": "µM"},
      {"measurement": "IC50", "setting": "K562-TAX", "result": "21.4 ± 4.08", "unit": "µM"},
      {"measurement": "IC50", "setting": "K562-TAX; Homo sapiens, K562-Tax, 72 h", "result": "> 21.4", "unit": "µM"},
      {"measurement": "IC50", "setting": "HCT-116", "result": "13 ± 3.61", "unit": "µM"},
      {"measurement": "IC50", "setting": "BJ", "result": "> 50", "unit": "µM"},
      {"measurement": "AV+/IP+ (late apoptosis)", "setting": "K562 cell line; K562, 5 µM", "result": 1.85, "unit": "%"},
      {"measurement": "AV+/IP- (early apoptosis)", "setting": "K562 cell line; K562, 5 µM", "result": 20.90, "unit": "%"},
      {"measurement": "AV-/IP+ (necrosis)", "setting": "K562 cell line; K562, 5 µM", "result": 0.44, "unit": "%"},
      {"measurement": "AV+/IP+ (late apoptosis)", "setting": "K562 cell line; K562, 10 µM", "result": 77.70, "unit": "%"},
      {"measurement": "AV+/IP- (early apoptosis)", "setting": "K562 cell line; K562, 10 µM", "result": 21.80, "unit": "%"},
      {"measurement": "AV-/IP+ (necrosis)", "setting": "K562 cell line; K562, 10 µM", "result": 0.29, "unit": "%"},
      {"measurement": "annexin V-FITC expression", "setting": "K562 cell line; K562, 10 µM", "result": "higher than 50%"}
    ]}
  ]
}
